Assay results from US20200148617A1, “GEMCABENE, PHARMACEUTICALLY ACCEPTABLE SALTS THEREOF, COMPOSITIONS THEREOF AND METHODS OF USE THEREFOR” (GEMPHIRE THERAPEUTICS INC., priority 2017, published 2020).

Tested on: hepatic mRNA expression in STAM™ mice
Assay: Murine STAM model of NASH-HCC: hepatic gene expression by quantitative RT-PCR
Format: in vivo, mouse
Settings: for TNF-α mRNA expression (relative, normalized to vehicle-treated normal group): mean±SD, vehicle STAM 3.6±1.0; for ADH-4 mRNA expression levels (relative): vehicle STAM 0.9±0.3; for CRP mRNA levels (relative): vehicle STAM 1.0±0.2; for NF-κB mRNA expression levels (relative): vehicle STAM 1.1±0.1; for MMP-2 mRNA expression levels (relative): vehicle STAM 1.9±0.7; for CCR2 mRNA expression levels (relative): vehicle STAM 3.5±1.7; for MCP-1 mRNA expression levels (relative): vehicle STAM 3.6±1.7; for Sulf-2 mRNA expression levels (relative): vehicle STAM 5.2±1.2; for MIP-1β mRNA levels (relative): vehicle STAM 5.6±2.0; for TIMP-1 mRNA expression (relative): vehicle STAM 12.9±9.0
Procedure: A study was performed to evaluate the efficacy of gemcabene calcium salt hydrate Crystal Form 1 having a PSD90 of 52 μm as measured by laser light diffraction, in treating non-alcoholic steatosis hepatitis (NASH) in the murine STAM™ model of NASH-HCC.
Briefly, two-day old neonatal C57BL/6 male mice were administered low-dose streptozotocin (STZ), and were subsequently fed a HFC diet from 4 weeks of age. In this model, the mice typically develop liver steatosis and diabetes, reaching steatohepatitis within 3 weeks, followed by cirrhosis within 8 weeks, and carcinoma within 16 weeks. In the current study, mice were administered daily oral gemcabene calcium salt hydrate Crystal Form 1 starting at week 6 of age and were sacrificed at week 9. Telmisartan (with antisteatotic, anti-inflammatory and antifibrotic effects in STAM™ mice) was used as a positive comparator. A baseline reference group was administered vehicle at day 2 of age, and from week 6 of age was vehicle-treated and chow-fed. Five STAM™ groups were streptozocin-treated at day 2 of age and fed a HFC-diet beginning with week 4 of age. These STAM™ groups were orally administered from week 6 one of the following: water-vehicle, gemcabene calcium salt hydrate Crystal Form 1 at 30, 100 and 300 mg/kg daily, or telmisartan ([…]®) 10 mg/kg daily. Telmisartan ([…]®) was purchased from Boehringer Ingelheim GmbH (Germany) and dissolved in pure water. All groups were sacrificed at week 9. Vehicle, gemcabene calcium salt hydrate Crystal Form 1, or telmisartan were administered by oral gavage once daily.
Various gene expression markers of liver metabolism were evaluated by Real-Time PCR (RT-PCR) in all mouse groups. Total RNA was extracted from liver samples using RNAiso (Takara Bio, Japan) according to the manufacturer's instructions. One μg of RNA was reverse-transcribed using a reaction mixture containing 4.4 mM MgCl2 (F. Hoffmann-La Roche, Switzerland), 40 U RNase inhibitor (Toyobo, Japan), 0.5 mM dNTP (Promega, USA), 6.28 μM random hexamer (Promega), 5× first strand buffer (Promega), 10 mM dithiothreitol (Invitrogen, USA) and 200 U MMLV-RT (Invitrogen) in a final volume of 20 μL. The reaction was carried out for 1 hour at 37° C., followed by 5 minutes at 99° C. Real-time PCR was performed using real-time PCR DICE and SYBR premix Taq (Takara Bio). To calculate the relative mRNA expression level, the expression of each gene was normalized to that of reference gene 36B4 (gene symbol: Rplp0). Information of PCR-primer sets is described in Tables 20A-20C. Statistical analyses were performed using the Bonferroni Multiple Comparison Test on GraphPad Prism 6 (GraphPad Software Inc., USA). P values <0.05 were considered statistically significant. Results are expressed as mean±SD.
In order to calculate the relative mRNA expression level, the expression of each gene was normalized to that of the reference gene 36B4 (gene symbol: Rplp0). The gene expression levels were measured by quantitative RT-PCR. Results were normalized with values for the vehicle-treated normal group. […] Gemcabene calcium salt hydrate Crystal Form 1 (PSD90=52 μm) modulated the mRNA expression of many hepatic genes that play a significant role in the liver homeostasis and injury.

CC(C)(CCCCOCCCCC(C)(C)C(=O)[O-])C(=O)[O-].O.[Ca+2] [6-(5-Carboxy-5-methyl-hexyloxy)-2,2-dimethylhexanoic acid calcium (gemcabene calcium salt) hydrate Crystal Form 1]
CCR5 mRNA expression levels (relative) (gemcabene 100 mg/kg): 1.4±0.3
TNF-α mRNA expression (relative, normalized to vehicle-treated normal group) (gemcabene 100 mg/kg): 2.0±0.8
ACC-1 mRNA expression levels (relative) (gemcabene 100 mg/kg, telmisartan 10 mg/kg, vehicle STAM 0.9±0.2): 0.7±0.1
ADH-4 mRNA expression levels (relative) (gemcabene 100 mg/kg): 0.6±0.1
CRP mRNA levels (relative) (gemcabene 100 mg/kg): 0.6±0.1
NF-κB mRNA expression levels (relative) (gemcabene 100 mg/kg): 0.9±0.1
MMP-2 mRNA expression levels (relative) (gemcabene 100 mg/kg): 0.5±0.2
CCR2 mRNA expression levels (relative) (gemcabene 100 mg/kg): 1.6±0.4
MCP-1 mRNA expression levels (relative) (gemcabene 100 mg/kg): 1.7±0.7
Sulf-2 mRNA expression levels (relative) (gemcabene 100 mg/kg): 3.8±0.7
MIP-1β mRNA levels (relative) (gemcabene 100 mg/kg): 2.3±0.9
TIMP-1 mRNA expression (relative) (gemcabene 100 mg/kg): 3.8±1.6
CCR5 mRNA expression levels (relative) (gemcabene 300 mg/kg): 1.3±0.3
TNF-α mRNA expression (relative, normalized to vehicle-treated normal group) (gemcabene 300 mg/kg): 1.9±0.7
ADH-4 mRNA expression levels (relative) (gemcabene 300 mg/kg): 0.5±0.1
CRP mRNA levels (relative) (gemcabene 300 mg/kg): 0.5±0.1
NF-κB mRNA expression levels (relative) (gemcabene 300 mg/kg): 0.8±0.1
MMP-2 mRNA expression levels (relative) (gemcabene 300 mg/kg): 0.9±0.2
CCR2 mRNA expression levels (relative) (gemcabene 300 mg/kg): 1.7±0.7
MCP-1 mRNA expression levels (relative) (gemcabene 300 mg/kg): 1.6±0.7
Sulf-2 mRNA expression levels (relative) (gemcabene 300 mg/kg): 3.3±0.9
MIP-1β mRNA levels (relative) (gemcabene 300 mg/kg): 2.8±1.4
TIMP-1 mRNA expression (relative) (gemcabene 300 mg/kg): 4.4±2.1
